This note sets out measurements from PubChem BioAssay AID2060487 (Molecular Pharmacology Branch, DTP, NCI, 2025).

For this assay, the system named is 997537-175-T-J1-PDC complex spheroid viability. The assay can be described thus: Anticancer human tumor 997537-175-T-J1-PDC patient-derived colon adenocarcinoma cell line growth inhibition [GQUAD]. The settings on record: for viability, T/C: stronger effect = lower value. Summed up:
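Tumor cells were grown as complex spheroids with HUVEC endothelial cells and mesenchymal stem cells as stroma. G-quadruplex stabilizers were combined with targeted agents over half-log dilutions from near the clinical Cmax, or from 10 microM.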

Several values for one entry are separate records, joined by “and”; a condition that tells them apart may be missing. Identical values can stand only once.
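Further: spheroids exposed to the agents for 7 days.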
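Wherever viability, T/C is given: 100% = DMSO vehicle control viability.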

As for `CCCS(=O)(=O)Nc1ccc(F)c(C(=O)c2c[nH]c3ncc(-c4ccc(Cl)cc4)cc23)c1F` + Cc1[nH]c2ccc(F)cc2c1-c1nc2c3cccnc3c3ncccc3c2[nH]1, the IC50 (as a rule, the point on the concentration scale where inhibition reaches its midpoint) is, setting by setting: (curve of first compound, second compound 0.0316 µM) 5.74 µM; (curve of first compound, second compound 0.1 µM) 5.6 µM; (curve of first compound, second compound 0.316 µM) 8.05 µM; (curve of first compound, second compound 1 µM) 1.92 µM; (curve of first compound, second compound 3.16 µM) 2.03 µM; (curve of first compound, second compound 10 µM) 1.47 µM. Moreover, the viability, T/C (usually the result in the treated group divided by that in the control group, in per cent) (second compound 0.0316 µM, first compound 0.0316 µM) is 88.8%; the viability, T/C (second compound 0.0316 µM, first compound 0.1 µM) was 107%; the viability, T/C (second compound 0.0316 µM, first compound 0.316 µM) is 97.9%; the viability, T/C (second compound 0.0316 µM, first compound 1 µM) was 70.1%; the viability, T/C (second compound 0.0316 µM, first compound 3.16 µM) was 71.5%; the viability, T/C (second compound 0.0316 µM, first compound 10 µM) is 34.4%. In addition, the viability, T/C is 101% (second compound 0.1 µM, first compound 0.0316 µM); 105% (second compound 0.1 µM, first compound 0.1 µM); 90% (second compound 0.1 µM, first compound 0.316 µM); 94.1% (second compound 0.1 µM, first compound 1 µM); 71.6% (second compound 0.1 µM, first compound 3.16 µM); 27.5% (second compound 0.1 µM, first compound 10 µM). Besides, the viability, T/C is 102% (second compound 0.316 µM, first compound 0.0316 µM); 101% (second compound 0.316 µM, first compound 0.1 µM); 97.1% (second compound 0.316 µM, first compound 0.316 µM); 69.2% (second compound 0.316 µM, first compound 1 µM); 83.5% (second compound 0.316 µM, first compound 3.16 µM); 41.8% (second compound 0.316 µM, first compound 10 µM). In addition, the viability, T/C reads like this: (second compound 1 µM, first compound 0.0316 µM) 98.2%; (second compound 1 µM, first compound 0.1 µM) 97.4%; (second compound 1 µM, first compound 0.316 µM) 101%; (second compound 1 µM, first compound 1 µM) 73.4%; (second compound 1 µM, first compound 3.16 µM) 33.1%; (second compound 1 µM, first compound 10 µM) 30.7%. In addition, the viability, T/C (second compound 3.16 µM, first compound 0.0316 µM) was 86%; the viability, T/C (second compound 3.16 µM, first compound 0.1 µM) was 81%; the viability, T/C (second compound 3.16 µM, first compound 0.316 µM) was 88%; the viability, T/C (second compound 3.16 µM, first compound 1 µM) was 72.8%; the viability, T/C (second compound 3.16 µM, first compound 3.16 µM) is 35.4%; the viability, T/C (second compound 3.16 µM, first compound 10 µM) is 16.5%. Also, the viability, T/C reads like this: (second compound 10 µM, first compound 0.0316 µM) 72.4%; (second compound 10 µM, first compound 0.1 µM) 82.5%; (second compound 10 µM, first compound 0.316 µM) 71.8%; (second compound 10 µM, first compound 1 µM) 63.3%; (second compound 10 µM, first compound 3.16 µM) 17.7%; (second compound 10 µM, first compound 10 µM) 28.9%.
Turning to `CC1COCCN1c1cc(-c2ccnn2C)c2ccnc(-c3ccn[nH]3)c2n1` (stereo unspecified), the viability, T/C was 80.4% and 95.8% and 90.8% (compound 0.0316 µM); 67.5% and 75.7% and 62.5% (compound 0.1 µM); 46% and 65.2% and 33.9% (compound 0.316 µM); 61% and 40% and 50% (compound 1 µM); 58% and 48.9% and 43.1% (compound 3.16 µM); 36.4% and 43.5% and 49.4% (compound 10 µM). In addition, the IC50 (curve of compound) was 1.75 µM and 0.846 µM and 0.219 µM.
On to `Cn1ncnc1[C@H]1c2n[nH]c(=O)c3cc(F)cc(c23)N[C@@H]1c1ccc(F)cc1`, for which the viability, T/C was 91.9% and 91.2% and 104% (compound 0.000999 µM); 89.7% and 92.9% and 86% (compound 0.00316 µM); 107% and 90.8% and 92.9% (compound 0.00999 µM); 72.1% and 87.1% and 89.7% (compound 0.0316 µM); 90.8% and 64% and 84% (compound 0.0999 µM); 85.8% and 73.8% and 89% (compound 0.316 µM). The IC50 (curve of compound) is more than 0.316 µM.
Consider `Cc1cnc(CNC(=O)c2c(=O)c3ccc(N4CCCN(C)CC4)nc3n3c2sc2ccccc23)cn1`, for which the viability, T/C reads like this: (compound 0.1 µM) 95.7% [middle of 12 runs]; (compound 0.316 µM) 96.5% [middle of 12 runs]; (compound 1 µM) 103% [middle of 12 runs]; (compound 10 µM) 91.5% [middle of 12 runs]. Further, the IC50 (compound alone, run of 04/16/2024) was more than 10 µM.
